This is an account of results in patent publication US20240327459A1, “PEPTIDE FRAGMENTS FOR TREATMENT OF DIABETES” (Follicum AB, priority 2018, published 2024).

Entries after “also recorded” stand apart in the source; their conditions may differ.

For one experiment, the system named is mouse pancreatic islets. The experiment can be described thus: Insulin secretion from isolated mouse pancreatic islets (Examples 5 and 7). Type of experiment: cell-based. Conditions: 60 min. How it is done:
Mouse pancreatic islets were isolated from 8-week old C57BL/6J male mice (Taconic). Mice were sacrificed by an overdose of isoflurane and cervical dislocation. 3 ml of 0.9 U/ml collagenase P was injected into the pancreatic duct to inflate the pancreas. The Pancreas was then removed and collagen digested for 19 min at 37° C. The samples Were vigorously shaken to disrupt the tissue. The digest was transferred into ice cold Hank's Balanced Salt Solution (HBSS) with Ca^2+ and Mg^2+. The suspension was allowed to sit for 10 min to allow the islet to sink, and the islets were washed in fresh HBSS four times. The islets were then hand-picked and sorted according to size. Islets (n=3 per well in a 96 well plate) were pre-incubated in KRB buffer during 10 min 37° C., pH 7.4, supplemented with 10 mM HEPES, 0.1% bovine serum albumin. After pre-incubation, the buffer was changed and islets were incubated at different test conditions in new KRB buffer with 0.1% bovine serum albumin (non-treated ctrl, FOL-005 peptide, or GLP-1) for 60 min at 37° C. Immediately after incubation, an aliquot of the buffer was removed and frozen for subsequent assay of insulin.
Mouse pancreatic islets were isolated from 8-week old C57BL/6J male mice as described under example 5. The islets were then hand-picked and sorted according to size. Islets (n=5 per well in a 96 well plate) were pre-incubated in 200 μl KRB buffer during 10 min 37° C., pH 7.4, supplemented with 10 mM HEPES, 0.1% bovine serum albumin. Following pre-incubation, the buffer was changed and islets were incubated in different test conditions in new KRB buffer with 0.1% bovine serum albumin (non-treated ctrl, FOL-014 peptide, and GLP-1) for 60 min at 37° C. Immediately after incubation, an aliquot of the buffer was removed and frozen for subsequent assay of insulin.

A further experiment deals with INS-1 β-cells. Nature of the experiment: Insulin secretion from INS-1 cells, insulin ELISA (Examples 8-11, 20). The experiment is classed as cell-based, rat. Here is the method:
Materials and methods: Rat INS-1 β-cells (passages 60-70) were cultured at 37° C. and 5% CO2 in cRPMI media (RPMI 1640 supplemented with 10% fetal bovine serum, 50 IU/mL penicillin, 50 mg/L streptomycin, 10 mM HEPES, 2 mM L-glutamine, 1 mM sodium pyruvate, and 50 μM beta-mercaptoethanol) unless otherwise stated. INS-1 cells were seeded in 96-well plates (2×10^3 cells/well) in cRPMI medium and following overnight incubation, the cells were washed in PBS before pre-incubation for 120 min at 37° C. in Krebs-Ringer bicarbonate buffer, pH 7.4, supplemented with 10 mM HEPES, 0.1% bovine serum albumin and 2.8 mM glucose. Following pre-incubation, the buffer was exchanged with fresh Krebs-Ringer buffer as described above and supplemented with specific glucose concentrations and peptides for the individual experiments as described below. Immediately after 60 minutes incubation at 37° C., an aliquot of the buffer was removed and frozen for subsequent insulin ELIZA assay.
Insulin release from INS-1 cells were measured following exposure to increasing concentrations of FOL-014 and compared with the stimulatory effect of GLP-1 and untreated control during high glucose concentration (16.7 mM). […] At 6 nM or higher, FOL-014 triggered insulin release within the same range as 100 nM GLP-1. At concentrations ranging from 0.6-60 nM, insulin secretion increased in a linear fashion in relation to increasing FOL-014 concentrations.
Insulin release from INS-1 cells was measured following exposure to 60 nM FOL-014 at increasing concentrations of glucose. In untreated control samples, elevated glucose concentrations increased the insulin secretion at 11.1 mM glucose or higher. […] (FIG. 6).
Insulin secretion from INS-1 cells was measured following exposure to FOL-005, FOL-014, GLP-1 or combinations of those, expressed as percentage of untreated control. […] The experiments were performed in the presence of 16.7 mM glucose (FIG. 7).
Novel peptide analogues, derived from either FOL-005 or FOL-014 were tested concerning their ability to induce insulin secretion in two separate INS-1 cell lines in the presence of 16.7 mM glucose. FOL-005, FOL-014 and GLP-1 as well as a high glucose (16.7 mM) and a low glucose (2.8 mM) control (not shown) was included in each experiment and the peptide concentration was 100 nM. In order to correct for the variance between experiments, all values were normalized to, and expressed as percentage of the average value of the high glucose control in the individual experiments. The analogues were subsequently ranked according to performance (FIGS. 11A and 11B).
Insulin secretion from INS-1 cells was measured following exposure to FOL-056, GLP-1 or a combination of those, expressed as percentage of untreated control. […] The experiments were performed in the presence of 16.7 mM glucose (FIG. 15).

The next experiment has as its system BB lyp/lyp rats. Nature of the experiment: Onset of type 1 diabetes in BB lyp/lyp rats. Type of experiment: in vivo, rat. Conditions: 100 nmol/kg subcutaneously 3 times/week from day 40, vs placebo. How it is done: BB lyp/lyp rats were randomized for placebo (sodium chloride, 9 mg/ml) or FOL-014 treatment 3 times/week from day 40 until onset of type 1 diabetes, defined as plasma glucose levels ≥11.1 mM. The dose of 100 nmol/kg FOL-014 peptide in saline or placebo (saline) was administered subcutaneously and the animals were terminated immediately upon exceeding critical plasma glucose levels. The difference between FOL-014 treated animals and animals receiving placebo treatment was significant both when expressed as average age for onset of type 1 diabetes (FIG. 10A) and when described as percentage of animals developing type 1 diabetes per day (FIG. 10B).

In another experiment the test system is INS-1E cells. Nature of the experiment: Insulin secretion from INS-1E cells (Example 18). Particulars: 100 nM peptide, high (16.7 mM) glucose buffer, 60 min, vs un-supplemented buffer. Type of experiment: cell-based, rat. Here is the method:
To investigate the stimulatory effect of FOL-056 on insulin secretion we used INS-1E cells. The cells were seeded overnight and washed with PBS before pre-incubation for 60 min at 37° C. in Krebs-Ringer bicarbonate buffer (KRB), pH 7.4, supplemented with 10 mM HEPES, 0.1% bovine serum albumin. Following pre-incubation, the buffer was discarded and the INS-1E cells were incubated in fresh KRB buffer supplemented with 10 mM HEPES, 0.1% bovine serum albumin with or without peptide FOL-056. For comparative purposes cells treated with FOL-014 was included. Following 60 min incubation at 37.C, the buffer was removed and frozen for subsequent insulin assay.

In the case of “KPLAEIDSIELSYGIK (MISC_FEATURE - peptide, FOL-014)”, the insulin secretion result in the experiment with mouse pancreatic islets (Example 7, 0.6 μM) is given as “did not affect insulin secretion; also recorded: had no effect on insulin secretion”; in the experiment on mouse pancreatic islets (Example 7, 6 μM, vs unstimulated control islets), “secreted more insulin compared to unstimulated control islets”; in the experiment with INS-1 β-cells (concentrations ≥600 nM, 16.7 mM glucose) it was “did not increase the insulin secretion; also recorded: less pronounced effect on insulin secretion”; in the experiment on INS-1E cells it was “resulted in a significant increase in insulin secretion”. In addition, the “insulin secretion at increasing glucose concentrations” value in the experiment with INS-1 β-cells (60 nM peptide, glucose 5.5 mM or higher, vs untreated control cells) is “increased significantly in a glucose dependent fashion already from 5.5 mM glucose; also recorded: significantly higher”. The “concentration range in which insulin secretion increased in a linear fashion” value in the experiment with INS-1 β-cells (16.7 mM glucose) fell in the range of 0.6 to 60 nM. In the experiment on INS-1 β-cells (16.7 mM glucose), the “concentration triggering insulin release within the same range as 100 nM GLP-1” value is no less than 6 nM. Further, in the experiment on INS-1 β-cells (all concentrations tested, 16.7 mM glucose, vs untreated control), the insulin release entry is “elicited significantly higher insulin release as compared with the untreated control; also recorded: significant increase in insulin secretion for all concentrations tested”. Also, the “onset of type 1 diabetes” value in the experiment on BB lyp/lyp rats is “significantly delayed the onset of type-1 diabetes; also recorded: significant delay in the onset of diabetes”.
